Several values for one entry are separate records, joined by “and”; a condition that tells them apart may be missing. Identical values can stand only once. Counter-ions that a name gives are not always drawn. Like-named read-outs stand apart in the source and are kept apart here.
Tests used:
[1] = system: ER-positive breast cancer cell lines; test: Proliferation of ER-positive breast cancer cell lines in vitro; type: cell-based; details: multiple ER-positive breast cancer cell lines, including cells engineered to express clinically relevant ER mutations
CYP2C9 = target: T1, CYP2C9 (Homo sapiens, UniProt P11712); test: CYP2C9 metabolism dependent inhibition; type: in vitro ADME
T1 construct: from tissue; host or cells: human liver microsomes
T1 sequence (P11712 whole entry): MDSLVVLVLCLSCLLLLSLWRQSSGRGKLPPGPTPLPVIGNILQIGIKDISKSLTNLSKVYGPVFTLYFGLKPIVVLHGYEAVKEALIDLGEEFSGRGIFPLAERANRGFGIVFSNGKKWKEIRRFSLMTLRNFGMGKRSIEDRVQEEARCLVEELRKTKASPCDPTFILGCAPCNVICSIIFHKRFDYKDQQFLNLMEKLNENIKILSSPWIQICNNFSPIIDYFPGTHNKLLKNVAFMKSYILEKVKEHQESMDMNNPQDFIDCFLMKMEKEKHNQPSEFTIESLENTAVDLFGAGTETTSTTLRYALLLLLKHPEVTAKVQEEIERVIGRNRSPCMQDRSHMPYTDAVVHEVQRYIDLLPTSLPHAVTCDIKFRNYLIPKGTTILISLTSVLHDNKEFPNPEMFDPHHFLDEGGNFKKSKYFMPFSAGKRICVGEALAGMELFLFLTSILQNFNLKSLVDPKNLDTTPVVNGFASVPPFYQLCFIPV

[2] = Approximate solubility of Compound B Form B material in 20 solvents at RT; type: physicochemical
Experimental: Polymorph Screening of L-Tartrate. The solubility of Compound B Form B material was estimated in 20 solvents at RT. (Table 22). Approximately 2 mg solids were added into a 3-mL glass vial. Solvents in Table 6-7 were then added into the vials stepwise until the solids were dissolved or a total volume of 1 mL was reached. Results of Table 22 were used to guide the solvent selection in polymorph screening. Polymorph screening experiments were performed using different solution crystallization or solid phase transition methods.

[3] = Four-week GLP repeat-dose oral toxicity study in female monkeys
CYP2C8 = target: T2, CYP2C8 (Homo sapiens, UniProt P10632); test: CYP2C8 inhibition in human liver microsomes; type: in vitro ADME
T2 construct: from tissue; host or cells: human liver microsomes
T2 sequence (P10632 1-490): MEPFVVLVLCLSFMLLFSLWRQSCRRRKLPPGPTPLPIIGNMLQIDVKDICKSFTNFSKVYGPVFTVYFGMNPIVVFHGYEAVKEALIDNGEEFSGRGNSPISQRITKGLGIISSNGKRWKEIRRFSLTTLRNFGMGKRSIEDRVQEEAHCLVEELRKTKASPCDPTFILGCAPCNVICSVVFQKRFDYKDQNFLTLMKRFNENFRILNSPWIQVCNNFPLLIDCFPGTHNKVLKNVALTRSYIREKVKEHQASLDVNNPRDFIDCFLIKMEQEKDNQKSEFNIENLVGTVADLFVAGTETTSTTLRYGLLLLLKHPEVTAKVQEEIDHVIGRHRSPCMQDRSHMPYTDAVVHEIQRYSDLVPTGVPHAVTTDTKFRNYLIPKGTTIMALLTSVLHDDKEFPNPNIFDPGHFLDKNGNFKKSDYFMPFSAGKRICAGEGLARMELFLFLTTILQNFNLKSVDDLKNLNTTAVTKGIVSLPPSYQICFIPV

[4] = in vivo
Experimental: (§1) Patients were enrolled in a dose-escalation stage with enrollment in an expansion stage to follow. During the single-agent dose escalation, cohorts were evaluated at escalating dose levels to determine the MTD or maximum administered dose (MAD).
(§2) Continuous once daily dosing was commenced during the treatment period starting on Cycle 1 Day 1.

[5] = Oral bioavailability in rats and dogs; details: rat, dog, in vivo
[6] = system: locally advanced or metastatic ER-positive breast cancer; details: for Response / Response, per cent in parentheses: one line per patient
Experimental: as §1
Patients were monitored for adverse events during a dose-limiting toxicity (DLT) assessment window, defined as Days −7 to 28 of Cycle 1 (single-agent cohorts). For DLT evaluation, toxicity was graded according to the National Cancer Institute Common Terminology Criteria for Adverse Events, Version 4.0 (NCI CTCAE v4.0).
Patients enrolled in the single-agent Compound B dose-escalation stage, which consists of a screening period, a PK lead-in period, a treatment period, and a safety follow-up period. Continuous once daily dosing was commenced during the treatment period starting on Cycle 1 Day 1. […] The dose will be increased by up to 200% of the preceding dose level for each successive cohort, until a safety finding of concern (i.e., either a DLT, any patient with Grade ≥2 clinically significant toxicity or overall adverse event profile inappropriate for 200% increments) is observed. Once safety findings of concern are observed, dose escalation will not exceed 100% increments.

clinical = details: human, in vivo, po
Experimental: as §1, §2

[7] = Oral bioavailability in monkeys; details: monkey, in vivo
[8] = Stress stability of solid forms at elevated temperature and humidity (XRPD, impurities); type: physicochemical; details: 40° C./75% RH, one month, tartrate
Experimental: Preliminary stress stability analysis of Compound B Form B. The XRPD patterns of Compound A salts (fumarate and tartrate) exposed to 40° C./75% RH for one month under open conditions.
XRPD of one-month stability sample.

[9] = female, rat, in vivo, po, 28 days
[10] = Pharmacokinetics after single IV administration; type: in vivo, and monkeys; details: rats, dogs, monkeys
[11] = system: xenograft models of ER-positive breast cancer
CYP3A4 = CYP3A4 (Homo sapiens, UniProt P08684); details: read-out: CYP3A4 inhibition IC50, direct inhibition, human liver microsomes
CYP3A4, sequence (P08684 whole entry): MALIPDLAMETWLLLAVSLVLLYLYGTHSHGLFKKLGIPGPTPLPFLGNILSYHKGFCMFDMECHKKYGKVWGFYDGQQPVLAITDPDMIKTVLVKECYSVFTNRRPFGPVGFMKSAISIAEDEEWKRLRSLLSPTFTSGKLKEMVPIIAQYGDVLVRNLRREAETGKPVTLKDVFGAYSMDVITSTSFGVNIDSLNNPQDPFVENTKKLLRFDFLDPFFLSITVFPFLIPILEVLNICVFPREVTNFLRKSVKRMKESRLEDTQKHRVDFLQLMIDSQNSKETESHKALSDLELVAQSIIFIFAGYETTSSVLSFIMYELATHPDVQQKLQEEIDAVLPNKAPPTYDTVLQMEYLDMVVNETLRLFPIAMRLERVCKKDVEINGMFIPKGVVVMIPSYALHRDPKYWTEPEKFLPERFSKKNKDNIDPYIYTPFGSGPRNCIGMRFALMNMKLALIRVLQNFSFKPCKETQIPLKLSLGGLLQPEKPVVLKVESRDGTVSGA

CYP = test: In vitro CYP inhibition (human liver microsomes) and induction (human hepatocytes) studies; type: in vitro ADME; details: induction in human hepatocytes
[12] = Four-week GLP repeat-dose oral toxicity study in female rats
[13] = monkey, in vivo
[14] = system: LBD of both wild-type and mutant ER; test: Competitive binding to ER ligand-binding domain
[15] = female, monkey, plasma, po, 60 mg/kg/day
[16] = female, rat, plasma, po, 100 mg/kg

SMILES: C[C@@H]1Cc2c([nH]c3ccccc23)[C@@H](c2c(F)cc(NC3CN(CCCF)C3)cc2F)N1CC(F)(F)CO [Compound B, 3-((1R,3R)-1-(2,6-difluoro-4-((1-(3-fluoropropyl)azetidin-3-yl)amino)phenyl)-3-methyl-1,3,4,9-tetrahydro-2H-pyrido[3,4-b]indol-2-yl)-2,2-difluoropropan-1-ol tartrate]
- Inhibition of proliferation [1]: potently inhibits
- Metabolism dependent inhibition of CYP2C9 (CYP2C9): weak
- solubility ([2]; organic solvent or mixture, thermodynamic from solid, 1,4-Dioxane): < 2200 µg/mL
- solubility ([2]; organic solvent or mixture, thermodynamic from solid, 2-MeTHF): < 1900 µg/mL
- solubility ([2]; organic solvent or mixture, thermodynamic from solid, ACN): < 2100 µg/mL
- solubility ([2]; organic solvent or mixture, thermodynamic from solid, Acetone): 2100 to 7000 µg/mL
- solubility ([2]; organic solvent or mixture, thermodynamic from solid, Anisole): < 1900 µg/mL
- solubility ([2]; organic solvent or mixture, thermodynamic from solid, CPME): < 2100 µg/mL
- solubility ([2]; organic solvent or mixture, thermodynamic from solid, DCM): < 2000 µg/mL
- solubility ([2]; organic solvent or mixture, thermodynamic from solid, DMSO): > 38000 µg/mL
- solubility ([2]; organic solvent or mixture, thermodynamic from solid, EtOAc): < 1900 µg/mL
- solubility ([2]; organic solvent or mixture, thermodynamic from solid, EtOH): < 1900 µg/mL
- solubility ([2]; organic solvent or mixture, thermodynamic from solid, IPA): < 2100 µg/mL
- solubility ([2]; organic solvent or mixture, thermodynamic from solid, IPAc): < 1900 µg/mL
- solubility ([2]; organic solvent or mixture, thermodynamic from solid, MEK): < 2000 µg/mL
- solubility ([2]; organic solvent or mixture, thermodynamic from solid, MIBK): < 1900 µg/mL
- solubility ([2]; organic solvent or mixture, thermodynamic from solid, MTBE): < 2100 µg/mL
- solubility ([2]; organic solvent or mixture, thermodynamic from solid, MeOH): 6700 to 20000 µg/mL
- solubility ([2]; organic solvent or mixture, thermodynamic from solid, THF): 2100 to 7000 µg/mL
- solubility ([2]; organic solvent or mixture, thermodynamic from solid, Toluene): < 1900 µg/mL
- solubility ([2]; organic solvent or mixture, thermodynamic from solid, n-Heptane): < 2000 µg/mL
- solubility ([2]; water, thermodynamic from solid, H2O): < 1900 µg/mL
- MTD at 4 weeks ([3]; female, monkey, in vivo, po): 60 mg/kg
- AUC(0-t) [3, 15]: 16200 ng·h/mL
- Cmax [3, 15]: 841 ng/mL
- Exposure multiple (AUC) over anticipated human Phase I starting dose at which PLD was observed ([3]; monkeys): ≥ 6 fold
- Exposure factor ([3]; monkeys, 20 mg/kg): 6 fold
- PLD finding ([3]; monkeys, 20 mg/kg): limited to minimal changes in the lung
- Increase in systemic exposure with dose ([3]; monkeys, 28-day oral): dose proportional
- IC50 (CYP2C8): 21 µM
- Plasma exposure vs dose [4]: increased proportionally
- Steady state exposure vs dose [4]: higher than dose proportional
- bioavailability [5]: 41 to 55%
- Response of individual patient (CT, FES-PET) ([6]; 10 mg, after 3 cycles): showed response
- FES-PET response ([6]; all treated patients with FES-PET, qualitative): near-complete (NC) or complete responses (CR)
- Response ([6]; cohort 1 (10 mg), tartrate): uPR
- Response, per cent in parentheses ([6]; cohort 1 (10 mg), tartrate): −40% and −27%
- Response ([6]; cohort 1-BF (10 mg)): cPD
- Response, per cent in parentheses ([6]; cohort 2 (30 mg)): −9%
- DLTs, SAEs, AESIs, clinically significant laboratory abnormalities ([6]; in vivo): no observed
- half-life (clinical): ~40 h
- bioavailability [7]: 17%
- Solid form (XRPD) after stress stability ([8]; open): did not change
- Impurities after stress stability ([8]; listed as tartrate salt): lacked the impurities
- Severely toxic dose for 10% of animals (STD10) [9]: 100 mg/kg
- half-life ([10]; rat, dog, monkey, in vivo, read-out: Terminal elimination half-life): 7 to 24 h
- Clearance [10]: low to moderate
- Volume of distribution [10]: large
- Tolerability of doses in xenograft models ([11]; in vivo): well tolerated
- Anti-tumor activity ([11]; including patient-derived xenograft with ESR1 mutation (ER.Y537S)): dose-dependent anti-tumor activity
- Fold lower dose giving same in vivo efficacy as GDC-0927 ([11]; vs GDC-0927): 100 ×
- Efficacious dose range ([11]; xenograft models): 0.1 to 10 mg/kg/day
- IC50 (CYP3A4; midazolam 1′-hydroxylation): 6.5 µM
- IC50 (CYP3A4; testosterone 6β-hydroxylation): 26 µM
- Potential for drug-drug interactions (CYP): low-to-moderate
- AUC(0-t) [12, 16]: 143000 ng·h/mL
- Cmax [12, 16]: 6560 ng/mL
- Exposure multiple (AUC) over anticipated human Phase I starting dose at which PLD was observed ([12]; rats): at least 44 fold
- Exposure factor ([12]; rats, 10 mg/kg): 18 fold
- PLD finding ([12]; rats, 10 mg/kg): not noted
- Increase in systemic exposure with dose ([12]; rats, 28-day oral): dose proportional
- Highest non-severely toxic dose ([13]; female, po, 28 days): 60 mg/kg/day
- Tolerability at high dose ([13]; 200 mg/kg): not tolerated
- Potency of competitive binding to ER LBD [14]: nanomolar potency

— patent US11780834B2, “Solid forms of 3-((1R,3R)-1-(2,6-difluoro-4-((1-(3-fluoropropyl)azetidin-3-yl)amino)phenyl)-3-methyl-1,3,4,9-tetrahydro-2H-pyrido[3,4-b]indol-2-yl)-2,2-difluoropropan-1-ol and processes for preparing fused tricyclic compounds comprising a substituted phenyl or pyridinyl moiety, including methods …” (Hoffmann-La Roche Inc., priority 2018, dated 2023)
